Tests used:
[1] = Cyclic voltammetry shuttle diffusion constant; type: physicochemical
Procedure: Further testing was carried out in coin cells made using 0.2 M 2,5-di-tert-butyl-1,4-dimethoxybenzene and 0.5 M LiBOB in 1:2 PC:DEC. […] For this cell the shuttle was singly ionized, the initially estimated electrode area was 1.3 cm^2 and the initially estimated electrode spacing was defined by the 25 μm separator. Based on measurements of the shuttle potential versus applied current, the effective diffusion constant D was estimated to be about 7×10^−7 cm^2/sec, and the maximum current density carried by the shuttle was estimated to be about 2.3 mA/cm^2. Using cyclic voltammetry, the shuttle diffusion constant was determined to be 1.6×10^−6 cm^2/sec. […] Thus, the effective area was less than 1.3 cm^2 and the effective length was greater than 25 μm.

[2] = Maximum solubility of shuttle in electrolyte, determined visually; type: physicochemical; conditions: in the Example 1 and Example 2 electrolyte (0.7 M LiBOB EC:DEC 1:2)
Procedure: Solubility limits were determined visually, after extended mixing.

[3] = Extended shuttle-protected overcharge cycling, LiFePO4/graphite cell, 100% overcharge each cycle; conditions: 0.2 M shuttle, 0.5 M LiBOB in 1:2 PC:DEC
Procedure: Further testing was carried out to evaluate currents up to 1/3 of Imax in extended shuttle-protected overcharge tests. […] The shuttle plateau is near 3.9 V because the graphite electrode is near 0 V vs Li/Li^+ when the Li-ion coin cell is fully charged. The charging current was 0.55 mA, which corresponds to about a C/2-rate for the electrodes of this cell. The shuttle continues to perform well after 200 charge discharge cycles. […] In this case, the shuttle was able to protect against overcharge for about 190 cycles, followed by disappearance of the shuttle effect over the next few cycles. […] The loss of shuttle effect at high C rates may have been due to the Li4/3Ti5/3O4 negative electrode dropping below its plateau potential (1.55 V) before reaching the fully discharged state.

[4] = Shuttle potential versus sequentially increased charge current in coin cell (Imax)
Excerpt: According to the literature (Richardson et al., J. Electrochem. Soc. Vol. 143, 3992 (1996)) the maximum shuttle current for a singly ionized shuttle is given by Imax=FAD C/d, [1] where F is Faraday's number, A is the electrode area, D is an effective diffusion constant of the shuttle species (taking into account both oxidized and reduced forms of the shuttle), C is the total concentration of the shuttle species and d is the distance between the electrodes. To obtain a large shuttle current, the electrolyte should impart a large diffusion constant, D, to the shuttle and support a high shuttle concentration, C. The shuttle diffusion constant usually will increase as the electrolyte solution viscosity decreases. A variety of charge carrying media may be employed in the electrolyte. Exemplary media are liquids or gels capable of solubilizing sufficient quantities of the lithium salt and the redox chemical shuttle so that a suitable quantity of charge can be transported from the positive electrode to negative electrode. […]
Further testing was carried out in coin cells made using 0.2 M 2,5-di-tert-butyl-1,4-dimethoxybenzene and 0.5 M LiBOB in 1:2 PC:DEC. […] Using cyclic voltammetry, the shuttle diffusion constant was determined to be 1.6×10^−6 cm^2/sec. […]

[5] = Shuttle molecules tested in LiFePO4/graphite and LiFePO4/Li4/3Ti5/3O4 coin cells, C/10, 100% overcharge; conditions: 0.1M shuttle, 0.7 M LiBOB PC:DMC:EC:DEC 1:2:1:2
Procedure: A variety of shuttle molecules (obtained from Aldrich Chemical Co. and used without further purification) were tested in LiFePO4/graphite and LiFePO4/Li4/3Ti5/3O4 coin cells. The LiFePO4 was obtained from Phostech Lithium as in Example 1 and the Li4/3Ti5/3O4 was obtained from NEI Corp. (Piscataway, N.J., USA). The graphite used was mesocarbon microbeads (MCMB) heat treated to near 2650° C. Electrodes were made from the active materials 10% by weight Super S carbon black (MMM Carbon, Belgium) and 10% by weight PVDF binder. LiFePO4 and Li4/3Ti5/3O4 electrodes were coated on aluminum foil and MCMB electrodes were coated on copper foil. […] The electrolyte was 0.7 M LiBOB in a 1:2:1:2 by volume mixture of PC:DMC:EC:DEC. The shuttle molecule was added in a concentration of 0.1M. Coin cells were charged using currents corresponding to a normal recharge in 10 hours (C/10) to 200% of their normal charge capacity (100% overcharge) or until a specified upper cut-off potential (normally 4.9V versus Li/Li^+) was reached, which ever occurred first and tested until the shuttle ceased to function. Four shuttles were employed, namely 1,3,5-tri-t-butyl-2-methoxybenzene (Example 9), 5-t-butyl-1,3-dinitro-2-methoxybenzene (Example 10), 2-t-butyl-4,6-dinitro-5-methylanisole (Example 11) and 4-t-butyl-2,6-diaminoanisole (Comparison Example 10). The coin cell test results are set out below in Table 2: […]

## COc1cc(C(C)(C)C)c(OC)cc1C(C)(C)C [2,5-di-tert-butyl-1,4-dimethoxybenzene]
[1]
  shuttle diffusion constant: 1.6×10^−6 cm^2/sec
[2]
  maximum room temperature solubility: ~90 mM
[3]
  shuttle plateau: ~3.9 V
[4]; 0.2 M shuttle, 0.5 M LiBOB in 1:2 PC:DEC
  potential at which the shuttle became oxidized at the LiFePO4 positive electrode: about 3.9 V vs Li/Li^+
[4]; electrode area 1.3 cm^2, 25 μm separator
  effective diffusion constant D (estimated from shuttle potential versus applied current): about 7×10^−7 cm^2/sec

## COc1c(N)cc(C(C)(C)C)cc1N [Comp. Ex. 5, 4-t-butyl-2,6-diaminoanisole, reference compound]
[5]
  Potential V, Li/Li^+: 4.4 V

## COc1c(C(C)(C)C)cc(C(C)(C)C)cc1C(C)(C)C [Example 9, 1,3,5-tri-t-butyl-2-methoxybenzene]
[5]
  Potential V, Li/Li^+: 4.4 V

## COc1c([N+](=O)[O-])cc(C(C)(C)C)cc1[N+](=O)[O-] [Example 10, 5-t-butyl-1,3-dinitro-2-methoxybenzene]
[5]
  Potential V, Li/Li^+: 4.9 V

## COc1c(C(C)(C)C)cc([N+](=O)[O-])c(C)c1[N+](=O)[O-] [Example 11, 2-t-butyl-4,6-dinitro-5-methylanisole]
[5]
  Potential V, Li/Li^+: 4.9 V

Source: patent US20050221196A1, “Redox shuttle for rechargeable lithium-ion cell” (priority 2004, published 2005)
